Consider two compounds from patent publication US11413281B2, “Ternary conjugate of antitumor drug, and synthesis and application” (priority 2016, dated 2022).

Where no end group is shown, it is not given here.

Data set [1] concerns E-selectin mediated adhesion of THP-I to HUVECs. Nature of the data set: Adhesion test of human acute monocytic leukemia cells and endothelial cells. Type of data set: cell-based. The conditions noted are these: THP-I on TNF-α stimulated HUVECs, FIG. 4. The protocol:
Example 3. Adhesion Test of Compounds Against Human Acute Monocytic Leukemia Cells and Endothelial Cells
Endothelial cell line HUVEC and human acute monocytic leukemia cell line THP-I were purchased from ATCC and cultured at 37° C. in a 5% CO2 saturated humidity medium, which contains 10% fetal bovine serum, RPMI 1640 with 100 μg/mL penicillin and F-12 with 100 μg/mL streptomycin, the cells were used at logarithmic growth phase.
Polylysine (20 μg/ml) (Shanghai Yuanye Biotechnology Co., Ltd.) was coated on a black 96-well cell culture plate (Corning Incorporated costar 3603) and incubated at 37° C. for 12 h. Endothelial cells HUVECs were seeded at a concentration of […] in black 96-well cell culture plates. After incubation at 37° C. for 36 h, the medium in the cell culture plates was removed. The experimental group was added with F-12 medium with 20 ng/ml TNF-α, F-12 medium without TNF-α was added to the control group, all the groups were incubated for 6 h at 37° C. […] 100 μl permeation solution (BIOSHARP) was added to each well and fluorescence was measured with a Synergy 4 Multiplate Reader (Biotek) (Ex, 485 nm; Em, 528 nm). The inhibitory effect of the candidate compound is inversely proportional to the fluorescence intensity, and the lower the fluorescence value, the stronger the inhibition effect of the compound.

A short description of data set [2]: Self-assembly in aqueous solution (proton NMR in DMSO-d6 vs D2O). The conditions noted are these: HCPT NMR signals disappear in D2O. The data set is classed as physicochemical. An excerpt:
The micelles enclose the hydrophobic structure inside. […] This phenomenon also exists in the conjugate of PEG and HCPT, and it is confirmed by dynamic light scattering and transmission electron microscopy, which showing it can form nanospheres or nanorods with about 200 nm diameter.

For a further data set, the system named is leukemia cells (K562). The data set can be described thus: In vitro anti-tumor activity, MTT assay, K562. Type of data set: cell-based. Conditions: Homo sapiens, K562, 48 h, read-out: K562 (IC50, μM). The protocol:
(§1) Preparation of MTT solution: MTT dry powder 0.5 g was dissolved in 100 mL PBS buffer, filtered and sterilized with a […] filter, and placed in a refrigerator at −12° C. for storage.
(§2) Three types of tumor cells used in the assay for antitumor activity are human hepatoma cells (HepG2), leukemia cells (K562) and human colon cancer cells (HCT116).
K562 cells were cultured in RPMI1640 cell culture medium containing 1% penicillin-streptomycin solution, 10% fetal bovine serum, and incubated at 37° C. in a constant temperature incubator containing 5% CO2. Specific steps:
The cells were counted using a hemocytometer and diluted to 5×10^4 cells/mL with RPMI medium;
100 μL of cell suspension was added to each well of a 96-well plate, incubated at 37° C. for 2 h.
(§3) The desired test compounds were diluted to 5 concentrations: 2 mM, 0.2 mM, 20 μM, 2 μM, 0.2 μM, and 0.5 μL/well was sequentially added according to the concentration, incubated at 37° C. for 48 h.
MTT was added at a concentration of 5 mg/mL, incubated at 37° C. for 4 hours.
Isopropanol and hydrochloric acid lysis were added, and the OD values at 570 nm and 630 nm were measured with a microplate reader.
(§4) Processing data, calculate IC50 value according to OD value.
For orientation: Tetrazolium dyes change colour on reduction, which living cells bring about.

For data set [3], the system named is human hepatoma cells (HepG2). The data set can be described thus: In vitro anti-tumor activity, MTT assay, HepG2. The data set is classed as cell-based. Conditions: HepG2, 48 h, read-out: HepG2 (IC50, μM). The protocol:
Formulation of DMEM low glucose medium: HyClone MEM low glucose medium, 500 mL per bottle, add 10% fetal bovine serum and 1% solution of penicillin, stored in a refrigerator at 4° C.
as §1, §2
Human Hepatocarcinoma Cell (HepG2) Test
The culture medium for HepG2 cells was DMEM cell culture medium containing 1% penicillin-streptomycin solution and 10% fetal bovine serum, and the culture condition was 37° C. and a constant temperature incubator containing 5% CO2. Specific steps:
The cells were counted using a hemocytometer and diluted with DMEM low glucose to 5×10^4 cells/mL.
(§5) Add 100 μL of cell suspension to each well of a 96-well plate, mix, incubated at 37° C. for 24 h.
as §3
(§6) MTT was added at a concentration of 5 mg/mL, incubated at 37° C. for 4 h.
Cells were lysed by addition of DMSO, and the OD values at 490 nm and 630 nm were measured with a microplate reader. […]

The subject of data set [4] is human colon cancer cells (HCT116). The data set can be described thus: In vitro anti-tumor activity, MTT assay, HCT116. The data set is classed as cell-based. Conditions: HCT-116, 48 h, read-out: HCT116 (IC50, μM). The protocol: Preparation of DMEM/F-12 culture broth: HyClone MEM/F-12 medium, 500 mL per bottle, add 10% fetal bovine serum and 1% solution of penicillin, stored in a refrigerator at 4° C.
as §1, §2
Human colon cancer cell HCT116 test
The culture fluid used for HCT116 cells was a DMEM/F-12 cell culture solution containing 1% penicillin-streptomycin solution, 10% fetal bovine serum. Specific steps:
The cells were counted using a hemocytometer and diluted with DMEM/F-12 medium to 5×10^4 cells/mL.
as §5, §3, §6
Cells were lysed by addition of DMSO, and the OD values at 490 nm and 630 nm were measured with a microplate reader.
as §4

What is called IC50 is the concentration needed to halve the response being measured.

For the compound “Compound 9 (CIELLQAR-OH; also: Cys1 connects to remainder of compound 9 through SH and amino group)”, in data set [1], the “anti-E-selectin mediated cell adhesion in vitro” value is recorded as “significant anti-E-selectin mediated cell adhesion”. In data set [2], the “self-assembly in aqueous solution” value is “self-assembled into nano-micelles”.

Turning to `CC[C@@]1(O)C(=O)OCc2c1cc1n(c2=O)Cc2cc3cc(O)ccc3nc2-1` [HCPT, 10-hydroxycamptothecin], the IC50 (in the data set with leukemia cells (K562); in data set [3]; in data set [4]) was less than 1 µM throughout.
